Laboratory results published in patent publication US7115657B2, “Bifunctional agents possessing antioxidant and antiarrhythmic activity” (Uni-Pharma Kleon Tsetis Pharmaceutical Laboratories S.A., priority 2000, dated 2006).

What was measured:
[1] = tested on: microsomal lipid peroxidation; assay: in vitro lipid peroxidation, heat-inactivated hepatic microsomal fraction, Fe2+/ascorbate, TBA reactive material; assay type: biochemical, Fischer rats
Method: The antioxidant activity of the new compounds was initially evaluated as set forth below. in vitro lipid peroxidation (Bationi J. P., Fontecave M., Jaouen M., Mansuy D. “Vitamin E derivatives as new potent inhibitors of microsomal lipid peroxidation” Biochem. Biophys. Res. Com. 1991, 174, 1103)
For these experiments, heat-inactivated hepatic microsomal fraction from untreated Fischer rats (200–220 g), corresponding to 0.125 g liver/ml final volume, was used. The incubation mixture contained the microsomal fraction, ascorbic acid (0.2 mM), in Tris buffer (50 mM, pH 7.4) and various concentrations (5 μM–1 mM) of the examined compounds dissolved in DMSO. The lipid peroxidation reaction was initiated with the addition of a freshly prepared FeSO4 solution (10 μM) and aliquots were taken at various time intervals for 45 min. Lipid peroxidation was estimated spectroscopically (535 nm vs. 600 nm) as 2-thiobarbitouric acid (TBA) reactive material. Each experiment was performed at least in triplicate.
The effect of various concentrations of representative compounds of the present invention on lipid peroxidation is shown in Table 1. […] However, there are quantitative differences that appear to be connected with the position of the amide substituent and the length of the side chain.

[2] = tested on: isolated heart preparations; assay: antiarrhythmic activity on isolated heart preparations, Krebs perfused Langerdorff model of ischemia and reperfusion; set-up: species or system Male Wistar rats; unit not given here; conditions: drug present during last 5 min of ischemia and during reperfusion, control (no drug) 12 ± 4
Method: The evaluation of the antiarrhythmic activity of the compounds set forth above was carried out on isolated heart preparations using the Krebs perfused Langerdorff model (Heisier B. E., Ferrier G. R. “Proarrhythmic actions of flecainide in an isolated tissue model of ischemia and reperfusion” J. Pharmacol. Exp. Ther. 1996, 279, 317). Male Wistar rats, 250–300 g, were anesthetized with pentobarbitone (15 mg/rat=5 mg/100 g body weight) and heparinized (1000 IU)
Hearts were excised and washed in ice cold modified Krebs-Henseleit (KHB) buffer of the following composition in Mm: NaCl 118, KCl 4.7, NaHCO3 25, KH2PO4 1.2, MgSO4 1.4, CaCl2 2.5, Glucose 11. Hearts were mounted on a Langerdorff apparatus, perfused at a pressure 100 mmHg, at 37° C., with KHB (9 ml/min) for 30–40 min and then the “ischemic” KHB solution was applied for 15 min (this solution is a KH buffer in which the glucose is substituted by Tris HCl. The hearts were then perfused with normal KHB for 30 min. Drugs were present during the last 5 min of ischemia and during reperfusion at the final concentration of 30 or 100 μM.
Electrocardiograms were recorded during equilibration, ischemia and reperfusion.
The most important arrhythmias seem to occur during early reperfusion (Li G-R., Ferrier G. R. “Effects of lidocaine on reperfusion arrhythmias and electrophysiological properties in an isolated ventricular muscle model of ischemia and reperfusion” J. Pharmacol. Exp. Ther. 1991, 257, 997).

CCN(CC)CCNC(=O)C1(C)CCc2c(C)c(O)c(C)c(C)c2O1 (stereo not shown) [Compound a, N-(3,4-dihydro-6-hydroxy-2,5,7,8-tetramethyl-2H-1-benzopyran-2-carbonyl)-N′,N′-diethyl Ethylenediamine]
% Inhibition ([1]; compound concentration 10 μM): 96.3% | Incidence of arrhythmias during the reperfusion period ([2]; 30 μM): 7 ± 3.5 | Incidence of arrhythmias during the reperfusion period ([2]; 100 μM): 5 ± 2

Cc1c(C)c2c(c(C)c1O)CCC(C)(C(=O)O)O2 (stereo not shown) [Trolox, reference compound]
% Inhibition ([1]; compound concentration 10 μM): 49%

CCCCCCC1(C(=O)NCCN(CC)CC)CCc2c(C)c(O)c(C)c(C)c2O1 (stereo not shown) [b, N-(3,4-dihydro-2-hexyl-6-hydroxy-5,7,8-trimethyl-2H-1-benzopyran-2-carbonyl)-N′,N′-diethyl Ethylenediamine]
% Inhibition ([1]; compound concentration 10 μM): 7.7% | % Inhibition ([1]; compound concentration 50 μM): 91%

CCCCCCCCCCCCC1(C(=O)NCCN(CC)CC)CCc2c(C)c(O)c(C)c(C)c2O1 (stereo not shown) [c, N-(3,4-dihydro-2-dodecyl-6-hydroxy-5,7,8-trimethyl-2H-1-benzopyran-2-carbonyl)-N′,N′-diethyl Ethylenediamine]
% Inhibition ([1]; compound concentration 200 μM): 0% | % Inhibition ([1]; compound concentration 400 μM): 48.6% | % Inhibition ([1]; compound concentration 500 μM): 93.8%

CCN(CC)CCNC(=O)c1c(O)c(C)c(C)c2c1CCC(C)(C)O2 [d, N-(3,4-dihydro-6-hydroxy-2,2,7,8-tetramethyl-2H-1-benzopyran-5-carbonyl)-N′,N′-diethyl Ethylenediamine]
% Inhibition ([1]; compound concentration 10 μM): 38.4% | % Inhibition ([1]; compound concentration 50 μM): 98.1%

CCCCCCC1(C)CCc2c(c(C)c(C)c(O)c2C(=O)NCCN(CC)CC)O1 (stereo not shown) [e, N-(3,4-dihydro-2-hexyl-6-hydroxy-2,7,8-trimethyl-2H-1-benzopyran-5-carbonyl)-N′,N′-diethyl Ethylenediamine]
% Inhibition ([1]; compound concentration 50 μM): 87.4%

CCCCCCCCCCCCC1(C)CCc2c(c(C)c(C)c(O)c2C(=O)NCCN(CC)CC)O1 (stereo not shown) [f, N-(3,4-dihydro-2-dodecyl-6-hydroxy-2,7,8-trimethyl-2H-1-benzopyran-5-carbonyl)-N′,N′-diethyl Ethylenediamine]
% Inhibition ([1]; compound concentration 50 μM): 0% | % Inhibition ([1]; compound concentration 1000 μM): 100%

CCN(CC)CC(=O)Nc1c(O)c(C)c(C)c2c1CCC(C)(C)O2 [g, N-(3,4-dihydro-6-hydroxy-2,2,7,8-tetramethyl-2H-1-benzopyran-5-yl)-(diethylamino)acetamide]
% Inhibition ([1]; compound concentration 5 μM): 72.4% | % Inhibition ([1]; compound concentration 10 μM): 100% | Incidence of arrhythmias during the reperfusion period ([2]; 30 μM): 8 ± 2.1 | Incidence of arrhythmias during the reperfusion period ([2]; 100 μM): 7 ± 2

CCCCCCC1(C)CCc2c(NC(=O)CN(CC)CC)c(O)c(C)c(C)c2O1 (stereo not shown) [h, N-(3,4-dihydro-2-hexyl-6-hydroxy-2,7,8-trimethyl-2H-1-benzopyran-5-yl)-(diethylamino)acetamide]
% Inhibition ([1]; compound concentration 5 μM): 17.4% | % Inhibition ([1]; compound concentration 10 μM): 100% | Incidence of arrhythmias during the reperfusion period ([2]; 30 μM): 6 ± 3 | Incidence of arrhythmias during the reperfusion period ([2]; 100 μM): 6 ± 2.5

CCN(CC)CC(=O)NC1CC(C)(C)Oc2c(C)c(C)c(O)c(C)c21 (stereo not shown) [i, N-(3,4-dihydro-6-hydroxy-2,2,5,7,8-pentamethyl-2H-1-benzopyran-4-yl)-(diethylamino)acetamide]
% Inhibition ([1]; compound concentration 50 μM): 98.6%

CCCCCCC1(C)CC(NC(=O)CN(CC)CC)c2c(C)c(O)c(C)c(C)c2O1 (stereo not shown) [j, N-(3,4-dihydro-2-hexyl-6-hydroxy-2,5,7,8-tetramethyl-2H-1-benzopyran-4-yl)-(diethylamino)acetamide]
% Inhibition ([1]; compound concentration 50 μM): 96.1%

Vitamin E [reference compound]
% Inhibition ([1]; compound concentration 10 μM): 21%
